Reference: ChEMBL document CHEMBL1201862, “PubChem BioAssay data set” (2004)
Active and inactive are the calls of the source.

How the values were obtained:
HEK293 [1] = assay: cells; type: functional, cell-based; settings: Homo sapiens
[2] = target: Nucleotide-binding oligomerization domain-containing protein 2 (Homo sapiens, UniProt Q9HC29); assay: NOD2 signaling inhibitors, cell-based, luminescence, uHTS, HEK293 (AID 1566); type: functional
HEK293 [3] = assay: NOD1 signaling inhibitors, primary screen, cell-based, luminescence, uHTS (AID 1578); type: functional; settings: Homo sapiens
HEK293 [4] = assay: NOD2 signaling inhibitors in MDP-stimulated cells, cell-based, uHTS, luminescence (AID 2001); type: functional; settings: Homo sapiens
HEK293 [5] = assay: cells; type: functional, cell-based; settings: Homo sapiens; remark: listed apart in the source
HEK293 [6] = assay: cells; type: functional, cell-based; settings: Homo sapiens; remark: listed apart in the source
Cysteine protease ATG4B = target: T1, Cysteine protease ATG4B (Homo sapiens, UniProt Q9Y4P1); type: functional;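 further: Fluorescence-based dose-response confirmation assay measuring inhibition of ATG4B activity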
T1 sequence (Q9Y4P1 whole entry): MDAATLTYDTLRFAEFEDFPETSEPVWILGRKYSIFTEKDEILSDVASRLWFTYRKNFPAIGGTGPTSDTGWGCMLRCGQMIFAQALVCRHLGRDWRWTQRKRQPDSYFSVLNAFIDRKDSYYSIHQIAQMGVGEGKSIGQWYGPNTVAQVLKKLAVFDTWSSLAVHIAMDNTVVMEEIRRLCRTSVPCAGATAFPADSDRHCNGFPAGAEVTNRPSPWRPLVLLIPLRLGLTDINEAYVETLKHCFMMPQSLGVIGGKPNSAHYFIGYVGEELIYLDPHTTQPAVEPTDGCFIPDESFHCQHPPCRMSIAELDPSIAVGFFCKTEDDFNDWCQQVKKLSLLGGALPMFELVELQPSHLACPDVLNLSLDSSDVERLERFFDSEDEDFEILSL

Phospholipase A2 = Phospholipase A2 (Homo sapiens, UniProt P04054); type: functional;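 further: confirmatory dose-response counterscreen on phospholipase A2, testing hits that came from an ultra-high-throughput screen for ATG4B inhibitors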
Protein RecA = target: T2, Protein RecA (Mycobacterium tuberculosis, UniProt P9WHJ3); assay: Fluorescence Cell-Free Homogeneous Dose Retest to Identify Inhibitors of RecA-Intein Splicing Activity. [Related pubchem assays (depositor defined):AID2097, AID2223, AID489010, AID492950]; type: functional
T2 sequence (P9WHJ3 whole entry): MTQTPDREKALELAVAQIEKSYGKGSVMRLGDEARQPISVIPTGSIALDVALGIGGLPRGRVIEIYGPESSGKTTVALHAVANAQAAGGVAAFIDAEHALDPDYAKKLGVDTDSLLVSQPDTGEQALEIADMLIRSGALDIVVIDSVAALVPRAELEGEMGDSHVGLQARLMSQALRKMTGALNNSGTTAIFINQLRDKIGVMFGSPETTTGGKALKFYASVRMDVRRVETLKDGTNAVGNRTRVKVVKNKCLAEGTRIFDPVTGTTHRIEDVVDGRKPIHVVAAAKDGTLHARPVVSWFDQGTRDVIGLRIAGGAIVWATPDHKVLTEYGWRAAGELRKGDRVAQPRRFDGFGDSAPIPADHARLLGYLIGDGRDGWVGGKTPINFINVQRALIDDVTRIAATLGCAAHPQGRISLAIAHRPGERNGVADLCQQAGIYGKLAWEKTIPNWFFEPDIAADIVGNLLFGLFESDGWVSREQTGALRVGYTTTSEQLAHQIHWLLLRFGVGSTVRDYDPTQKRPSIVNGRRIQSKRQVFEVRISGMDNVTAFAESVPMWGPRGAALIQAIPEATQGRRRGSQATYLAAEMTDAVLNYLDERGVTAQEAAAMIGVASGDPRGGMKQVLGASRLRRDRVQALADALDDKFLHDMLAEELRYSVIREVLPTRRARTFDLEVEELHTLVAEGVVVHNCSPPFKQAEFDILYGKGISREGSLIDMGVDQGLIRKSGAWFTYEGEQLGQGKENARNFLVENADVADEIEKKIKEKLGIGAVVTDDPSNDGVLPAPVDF

[7] = target: Eukaryotic translation initiation factor 4E (Mus musculus, UniProt P63073); assay: eIF4E–eIF4G protein interaction inhibitors, dose response, biochemical, TR-FRET (AID 855); type: functional;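 further: potency for disrupting eIF4E binding to eIF4GI seen as loss of FRET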
[8] = target: T3, Replicative DNA helicase DnaB (Mycobacterium tuberculosis, UniProt P9WMR3); assay: DnaB intein splicing inhibitors, dose response, biochemical, cell-free fluorescence (AID 449749); type: functional
T3 sequence (P9WMR3 whole entry): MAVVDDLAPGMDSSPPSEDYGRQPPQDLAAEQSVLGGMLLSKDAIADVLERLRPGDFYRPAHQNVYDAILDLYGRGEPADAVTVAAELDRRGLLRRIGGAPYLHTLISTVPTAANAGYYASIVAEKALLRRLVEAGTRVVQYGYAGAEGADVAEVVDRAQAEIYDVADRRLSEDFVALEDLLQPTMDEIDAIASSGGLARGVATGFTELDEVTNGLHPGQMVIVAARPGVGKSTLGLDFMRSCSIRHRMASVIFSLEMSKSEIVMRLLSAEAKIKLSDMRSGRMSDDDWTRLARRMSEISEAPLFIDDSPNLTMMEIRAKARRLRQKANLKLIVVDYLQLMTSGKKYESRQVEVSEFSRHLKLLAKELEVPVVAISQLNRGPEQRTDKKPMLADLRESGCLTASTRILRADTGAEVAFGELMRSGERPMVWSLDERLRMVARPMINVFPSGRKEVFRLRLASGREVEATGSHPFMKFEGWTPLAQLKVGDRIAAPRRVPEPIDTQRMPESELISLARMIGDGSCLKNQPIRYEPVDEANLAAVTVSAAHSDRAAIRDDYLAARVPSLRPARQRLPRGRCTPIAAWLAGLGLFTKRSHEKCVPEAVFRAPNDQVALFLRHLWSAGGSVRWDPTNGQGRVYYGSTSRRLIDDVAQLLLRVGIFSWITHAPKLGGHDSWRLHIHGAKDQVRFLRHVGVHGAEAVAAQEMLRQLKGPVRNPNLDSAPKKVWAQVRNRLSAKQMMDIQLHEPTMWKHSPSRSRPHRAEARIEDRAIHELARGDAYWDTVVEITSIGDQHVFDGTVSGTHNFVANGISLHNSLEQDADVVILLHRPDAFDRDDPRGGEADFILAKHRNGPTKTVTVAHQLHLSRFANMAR

Nucleotide-binding oligomerization domain-containing protein 2, sequence (Q9HC29 whole entry, the tested form may be a part): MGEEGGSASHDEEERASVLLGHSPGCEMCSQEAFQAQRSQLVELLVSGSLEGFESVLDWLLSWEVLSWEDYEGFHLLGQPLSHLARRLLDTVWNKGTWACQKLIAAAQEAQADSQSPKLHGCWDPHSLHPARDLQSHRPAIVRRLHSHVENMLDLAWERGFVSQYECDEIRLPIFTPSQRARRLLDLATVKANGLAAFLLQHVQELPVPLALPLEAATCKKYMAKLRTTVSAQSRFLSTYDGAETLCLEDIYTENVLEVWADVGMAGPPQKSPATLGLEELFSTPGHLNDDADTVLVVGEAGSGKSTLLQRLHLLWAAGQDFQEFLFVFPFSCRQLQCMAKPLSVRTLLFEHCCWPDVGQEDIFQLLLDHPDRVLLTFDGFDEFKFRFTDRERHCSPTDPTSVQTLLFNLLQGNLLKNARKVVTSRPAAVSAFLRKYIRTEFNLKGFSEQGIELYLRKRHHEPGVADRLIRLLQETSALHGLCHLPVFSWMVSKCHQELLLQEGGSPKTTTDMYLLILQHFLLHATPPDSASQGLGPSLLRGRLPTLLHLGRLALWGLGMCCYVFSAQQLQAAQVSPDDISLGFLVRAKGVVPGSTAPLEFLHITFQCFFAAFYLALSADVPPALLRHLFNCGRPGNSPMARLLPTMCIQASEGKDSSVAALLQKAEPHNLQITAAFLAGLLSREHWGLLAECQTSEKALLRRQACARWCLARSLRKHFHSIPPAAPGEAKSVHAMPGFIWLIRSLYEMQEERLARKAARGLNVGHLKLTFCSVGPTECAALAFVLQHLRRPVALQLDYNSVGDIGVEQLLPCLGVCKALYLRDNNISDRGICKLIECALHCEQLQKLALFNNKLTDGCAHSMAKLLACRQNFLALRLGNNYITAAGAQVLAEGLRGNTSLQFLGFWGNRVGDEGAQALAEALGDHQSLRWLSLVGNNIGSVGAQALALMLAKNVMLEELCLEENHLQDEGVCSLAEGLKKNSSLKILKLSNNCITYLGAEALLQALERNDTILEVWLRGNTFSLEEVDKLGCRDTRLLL
Eukaryotic translation initiation factor 4E, sequence (P63073 whole entry): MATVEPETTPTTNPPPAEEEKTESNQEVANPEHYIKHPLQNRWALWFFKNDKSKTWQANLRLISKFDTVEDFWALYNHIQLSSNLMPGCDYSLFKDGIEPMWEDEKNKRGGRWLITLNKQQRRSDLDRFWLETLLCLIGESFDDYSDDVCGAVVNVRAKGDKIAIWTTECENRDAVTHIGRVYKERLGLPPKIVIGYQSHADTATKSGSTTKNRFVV
Phospholipase A2, sequence (P04054 whole entry): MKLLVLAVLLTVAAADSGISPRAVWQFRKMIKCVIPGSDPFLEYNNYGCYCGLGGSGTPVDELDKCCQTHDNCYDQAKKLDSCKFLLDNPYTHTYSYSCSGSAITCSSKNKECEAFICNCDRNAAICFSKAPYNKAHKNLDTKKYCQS

## Cc1cc(C(=O)CSc2nnc(-c3ccco3)o2)c(C)n1-c1ccc2c(c1)OCCO2
HEK293 [1]
  IC50: > 20 µM (inactive)
[2]
  EC50: > 20 µM (inactive)
HEK293 [3]
  EC50: 5.37 µM (active)
HEK293 [4]
  IC50: 14.5 µM (inactive)
HEK293 [5]
  IC50: 13.3 µM (active)
HEK293 [6]
  IC50: > 20 µM (inactive)

## COc1ccc2nc(N3CCCCC3)c(/C=C3\SC(=S)NC3=O)cc2c1
HEK293 [1]
  IC50: 19.5 µM (active)
[2]
  EC50: 16.2 µM (active)
Cysteine protease ATG4B
  IC50: 4.24 µM (active)
HEK293 [3]
  EC50: 2.17 µM (active)
HEK293 [4]
  IC50: 4.26 µM (inactive)
HEK293 [5]
  IC50: 4.9 µM (active)
HEK293 [6]
  IC50: > 20 µM (inactive)
Phospholipase A2
  IC50: 2.47 µM (active)

## N#Cc1c(Cl)c(Cl)c2nnc(-c3ccc(Br)cc3)n2c1Cl
Protein RecA
  EC50: 9.3 µM (active)
[7]
  IC50: > 64 µM (inactive)
[8]
  AC50: 10.2 µM (active)
